Measured values published in patent US20150274664A1 (MERCK SHARP & DOHME CORP., priority 2012, published 2015).

Biological target: T1, human GPR119 (Homo sapiens, UniProt Q8TDV5)
T1 construct: expressed in transfected cells; host or cells: HEK293
T1 sequence (Q8TDV5 1-335): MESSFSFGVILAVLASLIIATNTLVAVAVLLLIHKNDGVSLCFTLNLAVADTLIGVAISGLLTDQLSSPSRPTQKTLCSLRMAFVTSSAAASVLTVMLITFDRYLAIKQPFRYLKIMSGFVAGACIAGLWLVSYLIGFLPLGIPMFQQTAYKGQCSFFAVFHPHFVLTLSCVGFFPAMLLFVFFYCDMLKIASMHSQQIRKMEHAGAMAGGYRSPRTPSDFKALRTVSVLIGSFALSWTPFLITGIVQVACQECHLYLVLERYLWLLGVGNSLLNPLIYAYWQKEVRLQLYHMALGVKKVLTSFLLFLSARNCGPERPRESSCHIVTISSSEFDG
Experiment: Measurement of GPR119 signaling using LANCE 384-well cAMP kit (LCMP assay)
Format: cell-based
Details: HEK293 cells stably transfected with human GPR119
Experimental: Measurement of GPR119 Signaling Using LANCE 384-Well cAMP Kit (LCMP Assay)
Human embryonic kidney (HEK) 293 cell lines stably transfected with human GPR119 were maintained in DMEM media containing FBS, penicillin-streptomycin, HEPES, and hygromycin. For the cAMP assay, the transfected cells were harvested using a non-enzymatic cell dissociation solution (GIBCO 2672), pelleted and resuspended in stimulation buffer (DMEM, 25 mM Hepes, 0.1% BSA, pH 7.4 in the presence of 100 μM phosphodiesterase inhibitors). The adenylate cyclase assay was constructed following the LANCE™ cAMP Kit (Perkin Elmer, AD0264) instructions. Briefly, cells with Alexa Fluor® 647-anti cAMP antibody were incubated with 10 point series diluted test article in stimulation buffer with a final concentration of 2.5% DMSO for 45 minutes. The reaction was stopped by incubating with the supplied detection buffer containing the europium chelate of the Eu-SA/Biotin-cAMP tracer for 3 hours. The assay was performed in duplicate in a 384 well plate for duplicate plates. Fluorescence at 665 nm was measured using a PHERAstar instrument. Basal activity was determined using a DMSO control and maximum response was defined as cAMP stimulation produced by an internal agonist control. Standard cAMP concentrations were assayed concurrently for conversion of fluorescence signal to cAMP level. The data was analyzed using 4-parameter curve fit in Microsoft Excel.

| SMILES | EC50 |
| --- | --- |
| CS(=O)(=O)c1ccc(COC[C@H]2C[C@@H]2C2CCN(c3ncc(Cl)cn3)CC2)c(F)c1 [Example 4] | 1.6 nM |
| CCc1cnc(N2CCC([C@H]3C[C@@H]3COCc3ccc(S(C)(=O)=O)cc3F)CC2)nc1 [Example 8, 5-ethyl-2-(4-((1R,2S)-2-(((2-fluoro-4-(methylsulfonyl)benzyl)oxy)methyl)cyclopropyl)piperidin-1-yl)pyrimidine] | 1.3 nM |
| CCc1cnc(N2CCC([C@H]3C[C@@H]3COCc3ccc(S(=O)(=O)CC)cc3)CC2)nc1 [Example 9, 5-ethyl-2-(4-((1R,2S)-2-(((4-(ethylsulfonyl)benzyl)oxy)methyl)cyclopropyl)piperidin-1-yl)pyrimidine] | 22 nM |
| COCc1cnc(N2CCC([C@H]3C[C@@H]3COCc3ccc(S(C)(=O)=O)cc3F)CC2)nc1 [Example 11, 2-(4-((1R,2S)-2-(((2-fluoro-4-(methylsulfonyl)benzyl)oxy)methyl)cyclopropyl)piperidin-1-yl)-5-(methoxymethyl)pyrimidine] | 7.1 nM |
| COCc1cnc(N2CCC([C@H]3C[C@@H]3COCc3ccc(S(C)(=O)=O)cc3)CC2)nc1 [Example 12, 5-(methoxymethyl)-2-(4-((1R,2S)-2-(((4-(methylsulfonyl)benzyl)oxy)methyl)cyclopropyl)piperidin-1-yl)pyrimidine] | 14 nM |
| CCS(=O)(=O)c1ccc(COC[C@H]2C[C@@H]2C2CCN(c3ncc(COC)cn3)CC2)cc1 [Example 13, 2-(4-((1R,2S)-2-(((4-(ethylsulfonyl)benzyl)oxy)methyl)cyclopropyl)piperidin-1-yl)-5-(methoxymethyl)pyrimidine] | 24 nM |
| CC1(OC(=O)N2CCC([C@H]3C[C@@H]3COCc3ccc(S(C)(=O)=O)cc3F)CC2)CC1 [Example 14, 1-methylcyclopropyl 4-((1R,2S)-2-((2-fluoro-4-(methylsulfonyl)benzyloxy)methyl)cyclopropyl)piperidine-1-carboxylate] | 8.8 nM |
| CC1(OC(=O)N2CCC([C@H]3C[C@@H]3COCc3ccc(CC(=O)N4CCC4)cc3F)CC2)CC1 [Example 23, 1-methylcyclopropyl 4-((1R,2S)-2-((4-(2-(azetidin-1-yl)-2-oxoethyl)-2-fluorobenzyloxy)methyl)cyclopropyl)piperidine-1-carboxylate] | 13 nM |
| CS(=O)(=O)c1ccc(OCC[C@@H]2C[C@H]2C2CCN(c3ncc(Cl)cn3)CC2)cc1F [Example 24, 5-chloro-2-(4-((1S,2S)-2-(2-(3-fluoro-4-(methylsulfonyl)phenoxy)ethyl)cyclopropyl)piperidin-1-yl)pyrimidine] | 8.3 nM |
| CS(=O)(=O)c1ccc(OCC[C@H]2C[C@@H]2C2CCN(c3ncc(Cl)cn3)CC2)cc1F [Example 25, 5-chloro-2-(4-((1R,2R)-2-(2-(3-fluoro-4-(methylsulfonyl)phenoxy)ethyl)cyclopropyl)piperidin-1-yl)pyrimidine] | 4.1 nM |
| CCc1cnc(N2CCC([C@@H]3C[C@H]3CCOc3ccc(S(C)(=O)=O)cc3F)CC2)nc1 [Example 26, 5-ethyl-2-(4-((1S,2S)-2-(2-(2-fluoro-4-(methylsulfonyl)phenoxy)ethyl)cyclopropyl)piperidin-1-yl)pyrimidine] | 9.4 nM |
| CCc1cnc(N2CCC([C@H]3C[C@@H]3CCOc3ccc(S(C)(=O)=O)c(F)c3)CC2)nc1 [Example 27, 5-ethyl-2-(4-((1R,2R)-2-(2-(3-fluoro-4-(methylsulfonyl)phenoxy)ethyl)cyclopropyl)piperidin-1-yl)pyrimidine] | 5.5 nM |
| CCc1cnc(N2CCC([C@H]3C[C@@H]3CCOc3ccc(S(C)(=O)=O)cc3F)CC2)nc1 [Example 28, 5-ethyl-2-(4-((1R,2R)-2-(2-(2-fluoro-4-(methylsulfonyl)phenoxy)ethyl)cyclopropyl)piperidin-1-yl)pyrimidine] | 8.8 nM |
| CS(=O)(=O)c1ccc(OCC[C@@H]2C[C@H]2C2CCN(c3ncc(Cl)cn3)CC2)c(F)c1 [Example 29, 5-chloro-2-(4-((1S,2S)-2-(2-(2-fluoro-4-(methylsulfonyl)phenoxy)ethyl)cyclopropyl)piperidin-1-yl)pyrimidine] | 17 nM |
